Test results published in patent US11730720B2, “ALK5 inhibitors” (THERAVANCE BIOPHARMA R&D IP, LLC, priority 2018, dated 2023).

Columns and labels:
[1] = target: T1, recombinant human ALK5 (TGF-βR1) protein (Homo sapiens, UniProt P36897); experiment: Biochemical ALK5 (TGF-βR1) assay to measure pKi (LANCE Ultra ULight kinase assay); conditions: apparent pKi, converted from pIC50 using the Cheng-Prusoff equation
T1 construct: purchased Life Technologies PR9075A
T1 sequence (P36897 34-503): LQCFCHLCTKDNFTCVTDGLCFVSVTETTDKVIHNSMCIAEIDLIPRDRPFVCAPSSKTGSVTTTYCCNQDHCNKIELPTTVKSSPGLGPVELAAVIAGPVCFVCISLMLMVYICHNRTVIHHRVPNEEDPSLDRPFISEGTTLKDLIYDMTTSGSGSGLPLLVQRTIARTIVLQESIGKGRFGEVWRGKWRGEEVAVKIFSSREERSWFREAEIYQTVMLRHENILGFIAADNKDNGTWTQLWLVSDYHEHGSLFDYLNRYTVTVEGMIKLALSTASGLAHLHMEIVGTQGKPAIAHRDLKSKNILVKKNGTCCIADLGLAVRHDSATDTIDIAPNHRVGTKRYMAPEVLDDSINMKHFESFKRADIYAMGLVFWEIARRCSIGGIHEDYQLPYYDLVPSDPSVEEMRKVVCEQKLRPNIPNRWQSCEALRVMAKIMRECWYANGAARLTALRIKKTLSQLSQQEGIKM
Summary of the method: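 TR-FRET kinase format: compound dose range 10 μM–25 pM equilibrated 60 min with human ALK5 and ULight-labelled topoisomerase 2α peptide in HEPES/MgCl2 buffer pH 7.5 with DTT. Reaction started with ATP (125 μM stock, 5× final), 60 min at 37° C, stopped with EDTA/Eu-anti-phospho antibody; pKi derived from pIC50 via Cheng-Prusoff.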

[2] = test system: TGF-β-stimulated SMAD3 phosphorylation in BEAS-2B cells; experiment: Cellular ALK5 potency assay, inhibition of TGF-β stimulated pSMAD3 formation in BEAS-2B cells; assay type: cell-based; conditions: Homo sapiens, inhibition of TGF-β (10 ng/mL) stimulated pSMAD3 formation, 1 hour compound incubation, read-out: BEAS2B pIC50 (converted)
Summary of the method: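 Phospho-SMAD3 was quantified by AlphaLISA in lysates of human lung epithelial BEAS-2B cells. Compound was added 1 h (37 °C, HEPES/BSA-supplemented HBSS) before a 30 min challenge with 10 ng/mL TGF-β. Values are pIC50 relative to stimulated cells without compound.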

Ki [1] | Compound | IC50 [2]
3.98 to 31.6 nM | Fc1ccccc1-c1[nH]nnc1-c1ccc2ncc(-c3c[nH]nc3C(F)(F)F)cc2n1 [Compound 12-2, 2-[5-(2-fluorophenyl)-1H-triazol-4-yl]-7-[3-(trifluoromethyl)-1H-pyrazol-4-yl]-1,5-naphthyridine] | 25.1 to 158 nM
0.398 to 3.16 nM | CNCCn1cc(-c2cnc3ccc(-c4c(-c5cc(Cl)ccc5F)[nH]c5cccnc45)nc3c2)cn1 [Compound 25-2, 2-[4-[6-[2-(5-chloro-2-fluoro-phenyl)-1H-pyrrolo[3,2-b]pyridin-3-yl]-1,5-naphthyridin-3-yl]pyrazol-1-yl]-N-methyl-ethanamine] | 200 to 1260 nM
0.0398 to 0.316 nM | NC1CC=C(c2cnc3ccc(-c4c[nH]nc4-c4ccc(F)c(F)c4)nc3c2)CC1 (stereo not shown) [Compound 8-19, 4-[6-[3-(3,4-difluorophenyl)-1H-pyrazol-4-yl]-1,5-naphthyridin-3-yl]cyclohex-3-en-1-amine] | ≤ 20 nM
0.0398 to 0.316 nM | C[C@@H]1CN(CCNc2cnc3ccc(-c4c[nH]nc4-c4cc(Cl)c(F)cc4F)nc3c2)C[C@H](C)N1 [Compound 6-74, 6-[3-(5-chloro-2,4-difluoro-phenyl)-1H-pyrazol-4-yl]-N-[2-[rac-(3R,5S)-3,5-dimethylpiperazin-1-yl]ethyl]-1,5-naphthyridin-3-amine] | 25.1 to 158 nM
3.98 to 31.6 nM | COCc1cccc(-c2[nH]cnc2-c2ccc3ncc(NCCN4CCN(C(C)C)CC4)cc3n2)c1 [Compound 15-2, N-[2-(4-isopropoylpiperazin-1-yl)ethyl]-6-[5-[3-(methoxymethyl)phenyl]-1H-imidazol-4-yl]-1,5-naphthyridin-3-amine] | 200 to 1260 nM
≤ 0.0316 nM | CNCCn1cc(-c2cnc3ccc(-c4nc[nH]c4-c4cccc(Cl)c4)cc3c2)cn1 [Compound 24-1, 2-(4-(6-(5-(3-chlorophenyl)-1H-imidazol-4-yl)quinolin-3-yl)-1H-pyrazol-1-yl)-N-methylethan-1-amine] | ≤ 20 nM
3.98 to 31.6 nM | CC(C)N1CCN(CCNc2cnc3ccc(-c4c[nH]nc4-c4ccc(F)c(F)c4)nc3c2)CC1 [Compound 8-1, 6-(3-(3,4-difluorophenyl)-1H-pyrazol-4-yl)-N-(2-(4-isopropylpiperazin-1-yl)ethyl)-1,5-naphthyridin-3-amine] | 25.1 to 158 nM
0.0398 to 0.316 nM | CNCCn1cc(-c2cnc3ccc(-c4c[nH]nc4-c4ccc(F)c(F)c4)nc3c2)nn1 [Compound 8-27, 2-(4-(6-(3-(3,4-difluorophenyl)-1H-pyrazol-4-yl)-1,5-naphthyridin-3-yl)-1H-1,2,3-triazol-1-yl)-N-methylethan-1-amine] | 25.1 to 158 nM
0.398 to 3.16 nM | Fc1ccc(-c2n[nH]cc2-c2ccc3ncc(N4CCC(N5CCCC5)CC4)cc3n2)cc1F [Compound 8-11, 2-[3-(3,4-difluorophenyl)-1H-pyrazol-4-yl]-7-(4-pyrrolidin-1-yl-1-piperidyl)-1,5-naphthyridine] | 25.1 to 158 nM
0.0398 to 0.316 nM | NCCn1cc(-c2cnc3ccc(-c4nc[nH]c4-c4cc(Cl)c(F)cc4F)nc3c2)cn1 [Compound 7-5, 2-[4-[6-[5-(5-chloro-2,4-difluoro-phenyl)-1H-imidazol-4-yl]-1,5-naphthyridin-3-yl]pyrazol-1-yl]ethanamine] | 25.1 to 158 nM

More lines, now with the values behind:

Compound | Ki [1] | IC50 [2]
Fc1ccc(Cl)cc1-c1nc2ccccn2c1-c1ccc2ncc(-c3cnn4c3CNCC4)cc2n1 [Compound 3-7, 2-[2-(5-chloro-2-fluoro-phenyl)imidazo[1,2-a]pyridin-3-yl]-7-(4,5,6,7-tetrahydropyrazolo[1,5-a]pyrazin-3-yl)-1,5-naphthyridine] | 0.0398 to 0.316 nM | 25.1 to 158 nM
Fc1ccc(Cl)cc1-c1n[nH]cc1-c1ccc2ncc(-c3cn(Cc4cnc5c(c4)CNCC5)nn3)cc2n1 [Compound 1-112, 2-[3-(5-chloro-2-fluoro-phenyl)-1H-pyrazol-4-yl]-7-[1-(5,6,7,8-tetrahydro-1,6-naphthyridin-3-ylmethyl)triazol-4-yl]-1,5-naphthyridine] | 0.0398 to 0.316 nM | 25.1 to 158 nM
CN1CCN(CC(C)(C)Nc2cnc3ccc(-c4c[nH]nc4-c4cc(Cl)ccc4F)nc3c2)CC1 [Compound 1-9, 6-[3-(5-chloro-2-fluoro-phenyl)-1H-pyrazol-4-yl]-N-[1,1-dimethyl-2-(4-methylpiperazin-1-yl)ethyl]-1,5-naphthyridin-3-amine] | 3.98 to 31.6 nM | 200 to 1260 nM
Fc1cc(F)c(-c2n[nH]cc2-c2ccc3ncc(NCCN4CCCC4)cc3n2)cc1Cl [Compound 6-7, 6-[3-(5-chloro-2,4-difluoro-phenyl)-1H-pyrazol-4-yl]-N-(2-pyrrolidin-1-ylethyl)-1,5-naphthyridin-3-amine] | 0.398 to 3.16 nM | 25.1 to 158 nM
Fc1cc(F)c(-c2n[nH]cc2-c2ccc3ncc(-c4nnc5n4CCN5)cc3n2)cc1Cl [Compound 6-64, 2-[3-(5-chloro-2,4-difluoro-phenyl)-1H-pyrazol-4-yl]-7-(6,7-dihydro-5H-imidazo[2,1-c][1,2,4]triazol-3-yl)-1,5-naphthyridine] | 0.398 to 3.16 nM | 200 to 1260 nM
CC(C)NCCn1cc(-c2cnc3ccc(-c4c[nH]nc4-c4cc(Cl)ccc4F)nc3c2)cn1 [Compound 1-94, N-(2-(4-(6-(3-(5-chloro-2-fluorophenyl)-1H-pyrazol-4-yl)-1,5-naphthyridin-3-yl)-1H-pyrazol-1-yl)ethyl)propan-2-amine] | ≤ 0.0316 nM | 25.1 to 158 nM
Fc1ccc(Cl)cc1-c1[nH]cnc1-c1ccc2ncc(NCC3CCCCN3)cc2n1 (stereo not shown) [Compound 2-31, 6-[5-(5-chloro-2-fluoro-phenyl)-1H-imidazol-4-yl]-N-(2-piperidylmethyl)-1,5-naphthyridin-3-amine] | 0.398 to 3.16 nM | 25.1 to 158 nM
Fc1cc(F)c(-c2n[nH]cc2-c2ccc3ncc(-c4nnn5c4NCCC5)cc3n2)cc1Cl [Compound 6-47, 2-[3-(5-chloro-2,4-difluoro-phenyl)-1H-pyrazol-4-yl]-7-(4,5,6,7-tetrahydrotriazolo[1,5-a]pyrimidin-3-yl)-1,5-naphthyridine] | 0.398 to 3.16 nM | 25.1 to 158 nM
CC(C)OC(=O)[C@H]1CN(c2cnc3ccc(-c4c[nH]nc4-c4cc(Cl)ccc4F)nc3c2)CCN1 [Compound 1-68, isopropyl (2R)-4-[6-[3-(5-chloro-2-fluoro-phenyl)-1H-pyrazol-4-yl]-1,5-naphthyridin-3-yl]piperazine-2-carboxylate] | 0.398 to 3.16 nM | 25.1 to 158 nM
Fc1ccc(Cl)cc1-c1n[nH]cc1-c1ccc2ncc(NCCN3CCCC3)cc2n1 [Compound 1-14, 6-[3-(5-chloro-2-fluoro-phenyl)-1H-pyrazol-4-yl]-N-(2-pyrrolidin-1-ylethyl)-1,5-naphthyridin-3-amine] | 0.0398 to 0.316 nM | ≤ 20 nM
Fc1ccc(Cl)cc1-c1[nH]cnc1-c1ccc2ncc(-c3cnn4c3CNCC4)cc2n1 [Compound 2-22, 2-[5-(5-chloro-2-fluoro-phenyl)-1H-imidazol-4-yl]-7-(4,5,6,7-tetrahydropyrazolo[1,5-a]pyrazin-3-yl)-1,5-naphthyridine] | 0.0398 to 0.316 nM | 25.1 to 158 nM
Fc1cc(F)c(-c2n[nH]cc2-c2ccc3ncc(-c4cn[nH]c4)cc3n2)cc1Cl [Compound 6-6, 2-[3-(5-chloro-2,4-difluoro-phenyl)-1H-pyrazol-4-yl]-7-(1H-pyrazol-4-yl)-1,5-naphthyridine] | 0.0398 to 0.316 nM | ≤ 20 nM
CN1CC=C(c2nc3n(n2)CCN(c2cnc4ccc(-c5c[nH]nc5-c5cc(Cl)ccc5F)nc4c2)C3)C1 [Compound 1-86, 2-(3-(5-chloro-2-fluorophenyl)-1H-pyrazol-4-yl)-7-(2-(1-methyl-2,5-dihydro-1H-pyrrol-3-yl)-5,6-dihydro-[1,2,4]triazolo[1,5-a]pyrazin-7(8H)-yl)-1,5-naphthyridine] | ≤ 0.0316 nM | 25.1 to 158 nM
Fc1cc(F)c(-c2n[nH]cc2-c2ccc3ncc(NC4CCNCC4)cc3n2)cc1Cl [Compound 6-10, 6-[3-(5-chloro-2,4-difluoro-phenyl)-1H-pyrazol-4-yl]-N-(4-piperidyl)-1,5-naphthyridin-3-amine] | 0.0398 to 0.316 nM | 200 to 1260 nM
COC(=O)[C@H]1CN(c2cnc3ccc(-c4c[nH]nc4-c4cc(Cl)c(F)cc4F)nc3c2)CCN1 [Compound 6-27, methyl (2R)-4-[6-[3-(5-chloro-2,4-difluoro-phenyl)-1H-pyrazol-4-yl]-1,5-naphthyridin-3-yl]piperazine-2-carboxylate] | 0.398 to 3.16 nM | 25.1 to 158 nM
Fc1cc(F)c(-c2n[nH]cc2-c2ccc3ncc(-c4nc(C(F)(F)F)n5c4CNCC5)cc3n2)cc1Cl [Compound 6-50, 2-[3-(5-chloro-2,4-difluoro-phenyl)-1H-pyrazol-4-yl]-7-[3-(trifluoromethyl)-5,6,7,8-tetrahydroimidazo[1,5-a]pyrazin-1-yl]-1,5-naphthyridine] | 3.98 to 31.6 nM | 25.1 to 158 nM
